The results in this text go back to US20260364080A1, “PYRAZOLO-PYRIMIDINONE COMPOUNDS FOR USE IN METHODS OF INHIBITING WEE1 A KINASE” (Acrivon Therapeutics, Inc., priority 2023, published 2026).

Bounds are passed on as bounds.

Assay [1] addresses T1, Myt1 kinase (recombinant PMYT-1) (Homo sapiens, UniProt Q99640).
T1 construct: full length PMYT-1 was expressed by baculovirus in insect cells; purchased Invitrogen A30984; host or cells: insect cells (baculovirus)
T1 sequence (Q99640 1-499): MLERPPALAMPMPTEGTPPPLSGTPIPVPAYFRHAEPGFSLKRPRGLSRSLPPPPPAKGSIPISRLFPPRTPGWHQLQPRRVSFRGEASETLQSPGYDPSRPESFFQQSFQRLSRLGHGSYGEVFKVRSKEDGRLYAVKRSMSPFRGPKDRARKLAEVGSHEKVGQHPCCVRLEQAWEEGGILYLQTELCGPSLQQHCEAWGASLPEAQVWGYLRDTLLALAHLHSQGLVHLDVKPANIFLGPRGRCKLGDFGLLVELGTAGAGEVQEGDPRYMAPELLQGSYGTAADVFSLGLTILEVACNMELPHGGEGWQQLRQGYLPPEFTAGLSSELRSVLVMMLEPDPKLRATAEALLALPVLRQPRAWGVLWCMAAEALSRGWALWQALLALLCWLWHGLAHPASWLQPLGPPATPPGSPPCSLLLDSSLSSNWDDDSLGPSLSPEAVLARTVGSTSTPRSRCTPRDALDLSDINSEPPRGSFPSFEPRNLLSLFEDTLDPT
Put plainly: Myt1 kinase binding assay (LanthaScreen Eu Kinase Binding Assay). As to conditions: 3 nM tracer 178, 2.5 nM PMYT-1, 1 nM Eu-labeled antibody; read-out: Myt1 kinase Binding IC50. On the procedure: (§1) To calculate the emission ratio, the acceptor/tracer emission ([…]) was divided by the antibody/donor emission ([…]) and the average of duplicate measurement was used for calculations. Data plotting, analysis of binding, and curve fitting was done using Excel add-in XLfit version 5.5.0.5 (IDBS, Guildford, United Kingdom). […] “NT” means not tested.
We used a LanthaScreen Europium (Eu) Kinase Binding Assay to determine the binding affinities (IC50) of compounds to Myt1 kinase. […] “NT” designates that the compound was not tested in this assay.

Assay [2] deals with T2, recombinant human Wee1A kinase (Homo sapiens, UniProt P30291).
T2 construct: full length Wee1 kinase was expressed by baculovirus in insect cells; purchased Invitrogen PV3817; host or cells: insect cells (baculovirus)
T2 sequence (P30291 whole entry): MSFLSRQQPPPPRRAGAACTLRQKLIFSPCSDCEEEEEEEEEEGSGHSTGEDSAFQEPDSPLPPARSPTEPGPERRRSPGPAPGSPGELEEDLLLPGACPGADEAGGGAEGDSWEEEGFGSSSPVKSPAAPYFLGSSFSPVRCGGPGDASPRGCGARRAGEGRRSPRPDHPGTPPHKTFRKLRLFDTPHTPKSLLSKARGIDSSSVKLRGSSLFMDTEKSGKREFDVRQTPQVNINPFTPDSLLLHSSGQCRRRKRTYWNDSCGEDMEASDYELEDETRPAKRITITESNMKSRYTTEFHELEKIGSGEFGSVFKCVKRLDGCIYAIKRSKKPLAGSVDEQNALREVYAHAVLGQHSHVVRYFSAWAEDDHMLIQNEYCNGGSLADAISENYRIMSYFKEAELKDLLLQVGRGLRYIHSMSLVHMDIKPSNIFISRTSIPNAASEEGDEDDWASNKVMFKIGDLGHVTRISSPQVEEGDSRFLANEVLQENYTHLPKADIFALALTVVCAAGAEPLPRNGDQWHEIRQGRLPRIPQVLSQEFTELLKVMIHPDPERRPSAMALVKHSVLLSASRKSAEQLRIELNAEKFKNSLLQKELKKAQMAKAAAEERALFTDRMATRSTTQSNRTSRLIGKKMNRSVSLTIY
Put plainly: Wee1A kinase binding assay (LanthaScreen Eu time-resolved FRET). As to conditions: 30 nM tracer 178, 5 nM Wee1A kinase, 2 nM Eu-labeled antibody; 60 minutes at room temperature; read-out: Wee1A kinase Binding IC50. Here is the method: This time resolved-FRET binding assay was performed in white 384-well low volume plates (Greiner, cat #784075), at room temperature in kinase buffer A (KBA; Invitrogen cat #PV3189), consisting of 50 mM HEPES-NaOH (pH 7.5), 0.01% Brij-35, 10 mM MgCl2, and 1 mM EGTA. 5 μL of compound (diluted in reaction buffer, to 1% DMSO) were added to various wells in the plate, followed by 5 μL each of recombinant human Wee1A kinase (full length Wee1 kinase was expressed by baculovirus in insect cells using a N-terminal GST tag (MW: 99.1 kDa) (Invitrogen cat #PV3817) and LanthaScreen Eu-anti-GST antibody (Invitrogen, cat #PV5594). After this, 5 μL of kinase tracer 178 (Invitrogen, cat #PV5593) was added to the plate and the plate was incubated for 60 minutes at room temperature. The final assay conditions in each well were: 30 nM tracer 178, 5 nM Wee1A kinase and 2 nM Eu-labeled antibody in total assay volume of 15 μL. An Envision 2104 (Perkin-Elmer) Plate Reader with the following time-resolve fluorescence setting was used for performing LanthaScreen kinase binding assay. • Excitation 320 nm (30 nm bandpass) • Kinase Tracer Emission 665 nm (10 nm bandpass) • LanthaScreen Eu-anti-Tag Antibody Emission 615 nm (10 nm bandpass) • Dichroic Mirror Instrument dependent • Delay Time 100 μs • Integration Time 200 μs
as §1
On the technique in general: TR-FRET usually uses a lanthanide donor and a delayed reading to cut background.

Assay [3] deals with T3, Wee1A kinase (CDK1 Tyr15 phosphorylation in ACHN renal cell carcinoma cells) (Homo sapiens, UniProt P30291).
T3 construct: pCDK1 Tyr15 immunofluorescence read-out
T3 sequence (P30291 whole entry): as above
As to the kind of experiment: High-content imaging of pCdk1 Y15, Wee1A kinase target engagement in ACHN cells. In kind it is cell-based. Conditions: 4 h treatment, nuclear positivity for pCdk1 Y15 vs DMSO control, read-out: CDK1 Tyr15 Phosphorylation EC50. On the procedure: Each of an ACHN renal cell carcinoma cell line (ATCC) and a DAOY medulloblastoma cell line, and an A427 lung cancer line were cultured in Minimum Essential Medium Eagle supplemented with 10% fetal calf serum (Sigma), 1% Penicillin-Streptomycin and 10 mM HEPES buffer (HyClone). Cell cultures were kept in a humidified incubator at 37 °C and 5% CO2. Cells were routinely tested for Mycoplasma contamination.
For target engagement assessment of Wee1A kinase inhibition, high-content imaging of ACHN renal cell carcinoma cells was used for quantification of CDK1 phosphorylated on tyrosine 15 by immunofluorescence (“IF”). 20,000 cells per well were seeded in tissue culture treated 96 well plates and treated with compounds at concentrations ranging from 7 to 5,000 nM or from 0.3 to 200 nM for 4h. Cells were fixated for 15 minutes in 4% paraformaldehyde solution, washed in PBS and permeabilized using 0.2% Triton X-100. Blocking was performed for 1 h at RT using Blocker FL Fluorescent Blocking Buffer (Thermo Scientific), thereafter cells were incubated with primary antibody (rabbit anti-pCDK1 Y^15, #4539, Cell Signaling Technology) at 4 °C ON. Alexa Fluor Plus 647 labelled goat anti-rabbit (A32733, Thermo Scientific) was used as secondary antibody. After washing in PBS, nuclei were stained with DAPI solution for 10 min at RT, protected from light. Cells were imaged using an ImageXpress Pico automated imaging system and CellReporter Xpress software (Molecular Devices). The percentage of cells with nuclear positivity for pCdk1 Y^15 compared to DMSO control was determined for each well and drug dose response curves and EC50 values were calculated and visualized using GraphPad Prism. Target engagement for Wee1A kinase can also be measured using the same AlphaLISA assay in OVCAR3 cells, an ovarian cancer cell line. NIH:OVCAR-3 (OVCAR3) cells are cultured in RPMI-1640 medium supplemented with 0.01 mg/ml insulin, 20% FBS, 1% Penicillin-Streptomycin and 10 mM HEPES buffer. 14,000 cells per well are seeded into 96 well tissue culture plates in full medium. Twenty-four hours post seeding, cells are treated with compound for 4 hours at concentrations ranging from 0.017 nM to 1000 nM.

What is called IC50 is the concentration needed to halve the response being measured. Broadly, the EC50 is the concentration that produces a half-maximal response. `C=CCn1c(=O)c2cnc(Nc3cncc(OC)c3)nc2n1-c1cccc(OC2CCN(C)CC2)n1` [Compound 342, 6-[(5-methoxypyridin-3-yl)amino]-1-{6-[(1-methylpiperidin-4-yl)oxy]pyridin-2-yl}-2-(prop-2-en-1-yl)-1H,2H,3H-pyrazolo[3,4-d]pyrimidin-3-one]: the IC50 in assay [1] was 0.02 to 0.1 µM; in assay [2], below 0.01 µM. Also, the 50% effective concentration (EC50) in assay [3] lay within 0.1 to 0.5 µM.

`C=CCn1c(=O)c2cnc(Nc3cc(C)cc(F)c3)nc2n1-c1cccc(NC2CCNCC2)n1` [Compound 160, 2-allyl-6-(3-fluoro-5-toluidino)-1-[6-(4-piperidylamino)-2-pyridyl]-1,2-dihydro-3H-1,2,5,7-tetraazainden-3-one]: the values for the IC50 in assay [1] and in assay [2] were 0.1 to 0.5 µM and below 0.01 µM, respectively. Besides, in assay [3], the EC50 lay within 0.1 to 0.5 µM.

Consider `CCn1c(=O)c2cnc(Nc3ccc(F)cc3)nc2n1-c1cccc(OC2CCNCC2)n1` [Compound 297, 2-ethyl-6-(p-fluorophenylamino)-1-[6-(4-piperidyloxy)-2-pyridyl]-1,2-dihydro-3H-1,2,5,7-tetraazainden-3-one], for which the IC50 in assay [1] was 0.1 to 0.5 µM; in assay [2] it was below 0.01 µM. Also, the EC50 in assay [3] lay within 0.1 to 0.5 µM.

For `C=CCn1c(=O)c2cnc(Nc3cncc(F)c3)nc2n1-c1cccc(OC2CCNCC2)n1` [Compound 329, 2-allyl-6-(5-fluoro-3-pyridylamino)-1-[6-(4-piperidyloxy)-2-pyridyl]-1,2-dihydro-3H-1,2,5,7-tetraazainden-3-one], the IC50 is 0.02 to 0.1 µM in assay [1] and below 0.01 µM in assay [2]. In addition, the EC50 in assay [3] lay in the range of 0.5 to 1 µM.

For the compound `C=CCn1c(=O)c2cnc(Nc3ccc4c(cnn4C)c3)nc2n1-c1cccc(OC2CCNC(C)C2)n1` [Compound 404, rel-2-allyl-6-((1-methyl-1H-indazol-5-yl)amino)-1-(6-(((2R,4R)-2-methylpiperidin-4-yl)oxy)pyridin-2-yl)-1,2-dihydro-3H-pyrazolo[3,4-d]pyrimidin-3-one], the figures for the IC50 in assay [1] and in assay [2] were 0.02 to 0.1 µM and below 0.01 µM, respectively. For the same compound, the concentration for a half-maximal effect (EC50) in assay [3] was below 0.1 µM.

In the case of `CCn1c(=O)c2cnc(Nc3ccc4c(cnn4C)c3)nc2n1-c1cccc(NC2CCNCC2)n1` [Compound 285, 2-ethyl-6-[(1-methyl-1H-indazol-5-yl)amino]-1-{6-[(piperidin-4-yl)amino]pyridin-2-yl}-1H,2H,3H-pyrazolo[3,4-d]pyrimidin-3-one], the IC50 is 0.1 to 0.5 µM in assay [1] and below 0.01 µM in assay [2]. Further, the EC50 in assay [3] was above 1 µM.

Take `C=CCn1c(=O)c2cnc(Nc3cncc(F)c3)nc2n1-c1cccc(OC2CCN(C)CC2)n1` [Compound 327, 2-allyl-6-(5-fluoro-3-pyridylamino)-1-[6-(1-methyl-4-piperidyloxy)-2-pyridyl]-1,2-dihydro-3H-1,2,5,7-tetraazainden-3-one]: the IC50 is 0.02 to 0.1 µM in assay [1] and below 0.01 µM in assay [2]. In addition, in assay [3], the EC50 lay within 0.1 to 0.5 µM.

On to `CCn1c(=O)c2cnc(Nc3ccc(C#N)cc3)nc2n1-c1cccc(OC2CCNCC2)n1` [Compound 302, p-{2-ethyl-3-oxo-1-[6-(4-piperidyloxy)-2-pyridyl]-1,2-dihydro-3H-1,2,5,7-tetraazainden-6-ylamino}benzonitrile], for which the IC50 in assay [1] was 0.02 to 0.1 µM; in assay [2], below 0.01 µM. Further, the EC50 in assay [3] lay in the range of 0.5 to 1 µM.

For the compound `C=CCn1c(=O)c2cnc(Nc3cc(-c4ccccc4)ns3)nc2n1-c1cccc(NC2CCN(C)CC2)n1` [Compound 158, 2-allyl-1-[6-(1-methyl-4-piperidylamino)-2-pyridyl]-6-(3-phenyl-5-isothiazolylamino)-1,2-dihydro-3H-1,2,5,7-tetraazainden-3-one], the IC50 in assay [1] is 0.02 to 0.1 µM; in assay [2], below 0.01 µM. Besides, the EC50 in assay [3] lay within 0.1 to 0.5 µM.

Turning to `C=CCn1c(=O)c2cnc(Nc3ccc(C)nc3)nc2n1-c1cccc(OC2CCNCC2)n1` [Compound 237, 2-allyl-6-((6-methylpyridin-3-yl)amino)-1-(6-(piperidin-4-yloxy)pyridin-2-yl)-1,2-dihydro-3H-pyrazolo[3,4-d]pyrimidin-3-one], the IC50 was 0.02 to 0.1 µM in assay [1] and below 0.01 µM in assay [2]. The EC50 in assay [3] lay in the range of 0.1 to 0.5 µM.

In the case of `C=CCn1c(=O)c2cnc(Nc3ccc(OCC(F)(F)F)c(C)c3)nc2n1-c1cccc(NC2CCNCC2)n1` [Compound 178, 2-allyl-1-[6-(4-piperidylamino)-2-pyridyl]-6-[4-(2,2,2-trifluoroethoxy)-3-toluidino]-1,2-dihydro-3H-1,2,5,7-tetraazainden-3-one], the IC50 in assay [1] was 0.1 to 0.5 µM; in assay [2], below 0.01 µM. For the same compound, the EC50 in assay [3] lay in the range of 0.1 to 0.5 µM.

On to `CCn1c(=O)c2cnc(Nc3cnn(C)c3)nc2n1-c1cccc(OC2CCN(C)CC2)n1` [Compound 341, 2-ethyl-6-[(1-methyl-1H-pyrazol-4-yl)amino]-1-{6-[(1-methylpiperidin-4-yl)oxy]pyridin-2-yl}-1H,2H,3H-pyrazolo[3,4-d]pyrimidin-3-one], for which, in assay [1], the half-maximal inhibitory concentration (IC50) lay in the range of 0.02 to 0.1 µM. Besides, the half-maximal effective concentration (EC50) in assay [3] lay within 0.1 to 0.5 µM.

Take `C=CCn1c(=O)c2cnc(Nc3ccc(OC)nc3)nc2n1-c1cccc(OC2CCNCC2)n1` [Compound 251, 2-allyl-6-(6-methoxy-3-pyridylamino)-1-[6-(4-piperidyloxy)-2-pyridyl]-1,2-dihydro-3H-1,2,5,7-tetraazainden-3-one]: the IC50 in assay [1] is 0.02 to 0.1 µM; in assay [2], below 0.01 µM.

As for `C=CCn1c(=O)c2cnc(Nc3ccc(Cl)cc3)nc2n1-c1cccc(N(C)[C@H]2CCCNC2)n1` [Compound 173, 1-{6-[N—(S)-3-piperidyl-N-methylamino]-2-pyridyl}-2-allyl-6-(p-chlorophenylamino)-1,2-dihydro-3H-1,2,5,7-tetraazainden-3-one], the IC50 is above 0.5 µM in assay [1] and 0.01 to 0.1 µM in assay [2].

Take `C=CCn1c(=O)c2cnc(Nc3ccc(Cl)cc3)nc2n1-c1cccc(N(C)[C@H]2CCCN(C)C2)n1` [Compound 164, 1-(6-{[(S)-1-methyl-3-piperidyl]-N-methylamino}-2-pyridyl)-2-allyl-6-(p-chlorophenylamino)-1,2-dihydro-3H-1,2,5,7-tetraazainden-3-one]: the IC50 in assay [1] is above 0.5 µM; in assay [2], 0.01 to 0.1 µM.
